According to the supplement of paper PMC7661543:
± gives the standard deviation of the averaged measurements.

Key:
Test in all cases: relative cell number vs DMSO control (72 h) (% of DMSO); higher = less growth inhibition (more cells)
Conditions in all cases: sgRNA knockout: sgNT
HCC-38 = test system: HCC-38
Protocol: (§1)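 QMAP-Seq: a pool of 5 breast cancer cell lines (ZR-75-1, SKBR3, HCC-38, MDA-MB-231, BT-20), each carrying 12 doxycycline-inducible Cas9 sgRNA perturbations (11 knockouts plus non-targeting sgNT), was treated with compounds for 72 h at four 10-fold doses (10 nM-10 uM or 1 nM-1 uM range). Barcodes were amplified and sequenced, and cell number was interpolated from 293T spike-in standard curves. The result is expressed as % of the median of DMSO wells. Two biological replicates.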

MDA-MB-231 = test system: MDA-MB-231
Protocol: as §1

SKBR3 = test system: SKBR3
Protocol: as §1

BT-20 = test system: BT-20
Protocol: as §1

ZR-75-1 = test system: ZR-75-1
Protocol: as §1

Row | Compound | relative cell number (HCC-38; 10 nM) | relative cell number (HCC-38; 100 nM) | relative cell number (HCC-38; 1000 nM) | relative cell number (HCC-38; 10000 nM) | relative cell number (MDA-MB-231; 10 nM) | relative cell number (MDA-MB-231; 100 nM) | relative cell number (MDA-MB-231; 1000 nM) | relative cell number (MDA-MB-231; 10000 nM) | relative cell number (SKBR3; 10 nM) | relative cell number (SKBR3; 100 nM) | relative cell number (SKBR3; 1000 nM) | relative cell number (SKBR3; 10000 nM) | relative cell number (BT-20; 10 nM) | relative cell number (BT-20; 100 nM) | relative cell number (BT-20; 1000 nM) | relative cell number (BT-20; 10000 nM) | relative cell number (ZR-75-1; 10 nM) | relative cell number (ZR-75-1; 100 nM) | relative cell number (ZR-75-1; 1000 nM) | relative cell number (ZR-75-1; 10000 nM)
1 | COc1cc2ncnc(Nc3ccc(F)c(Cl)c3)c2cc1OCCCN1CCOCC1 [Gefitinib] | 84.4 ± 11 | 105.03 ± 0.0072 | 105 ± 18 | 92.41 ± 0.25 | 83.3 ± 31 | 76.2 ± 23 | 81.2 ± 19 | 108 ± 12 | 78.7 ± 18 | 95.3 ± 31 | 48.5 ± 17 | 36.6 ± 7.8 | 95.4 ± 5.2 | 80.8 ± 9.2 | 86.3 ± 16 | 62.8 ± 13 | 101 ± 13 | 116 ± 49 | 51.61 ± 0.097 | 44.4 ± 13
2 | Nc1ccn([C@@H]2O[C@H](CO)[C@@H](O)C2(F)F)c(=O)n1 [Gemcitabine] | 20.2 ± 3.4 | 10.5 ± 0.58 | 12.9 ± 3.4 | 11.1 ± 3.8 | 18.5 ± 3.2 | 20.3 ± 7.1 | 15.6 ± 1.6 | 14 ± 3.5 | 26.2 ± 2.4 | 7.58 ± 1.7 | 11.1 ± 5.8 | 14.1 ± 6.9 | 68 ± 3.1 | 34 ± 5.5 | 28.3 ± 5 | 23.9 ± 15 | 36.6 ± 15 | 26.4 ± 0.51 | 33.9 ± 6 | 30.5 ± 2.7
3 | Cc1cc2c(C(C)C)c(O)c(O)c(C=O)c2c(O)c1-c1c(C)cc2c(C(C)C)c(O)c(O)c(C=O)c2c1O [Gossypol] | 96.4 ± 16 | 91.6 ± 12 | 107.2 ± 0.47 | 27 ± 1.4 | 125 ± 38 | 87.2 ± 6.4 | 103 ± 33 | 22.7 ± 7.3 | 101.3 ± 0.15 | 94.3 ± 8.1 | 103 ± 7.4 | 24.6 ± 2.8 | 96.2 ± 1.7 | 80.1 ± 8.4 | 113 ± 39 | 44.9 ± 2 | 129 ± 19 | 96 ± 13 | 106 ± 54 | 26.9 ± 14
4 | COc1cc2c(cc1-c1c(C)noc1C)ncc1[nH]c(=O)n([C@H](C)c3ccccn3)c12 [IBET151] | 85.1 ± 6.5 | 82.8 ± 13 | 60.2 ± 2.5 | 53.6 ± 3.3 | 88.1 ± 9 | 72.1 ± 3.6 | 42.4 ± 2 | 19 ± 15 | 64.9 ± 9 | 88.5 ± 6.6 | 47.8 ± 1.4 | 31.9 ± 9.4 | 82.5 ± 2.4 | 90.5 ± 39 | 72.5 ± 0.91 | 49.4 ± 3.8 | 65.6 ± 36 | 104 ± 28 | 49 ± 4.5 | 37.5 ± 0.4
5 | O=P1(NCCCl)OCCCN1CCCl (stereo not given) [Ifosfamide] | 107 ± 4.6 | 96 ± 20 | 105 ± 14 | 100 ± 11 | 75.5 ± 8 | 95.4 ± 25 | 103 ± 13 | 95.5 ± 5.4 | 74.2 ± 5.4 | 74.6 ± 24 | 82.8 ± 25 | 71.9 ± 38 | 71.6 ± 2.8 | 89.6 ± 16 | 109.5 ± 0.23 | 84.7 ± 16 | 69.6 ± 31 | 107 ± 35 | 79.1 ± 40 | 85.6 ± 8.3
6 | O=C(/C=C/c1ccc(O)cc1)c1ccc(O)cc1O [Isoliquiritigenin] | 96.1 ± 6.6 | 92.5 ± 6.5 | 96.7 ± 11 | 86.5 ± 9.8 | 87.3 ± 22 | 75.5 ± 23 | 87 ± 3 | 88 ± 26 | 83.1 ± 20 | 109 ± 30 | 82.7 ± 16 | 68.9 ± 8.6 | 113 ± 12 | 95.4 ± 25 | 80.4 ± 11 | 94.9 ± 1.9 | 120 ± 22 | 88 ± 10 | 99.8 ± 30 | 83.9 ± 5.5
7 | CCn1c(=O)c2c(nc(/C=C/c3ccc(OC)c(OC)c3)n2C)n(CC)c1=O [Istradefylline] | 88.28 ± 0.69 | 99.3 ± 24 | 93.3 ± 8.3 | 106 ± 2.4 | 86 ± 1.8 | 146 ± 30 | 93.8 ± 5.8 | 105 ± 43 | 80.5 ± 18 | 84.2 ± 5.3 | 99.5 ± 23 | 112 ± 15 | 109 ± 12 | 104 ± 5.7 | 94.8 ± 12 | 106 ± 8.2 | 128 ± 37 | 114 ± 3.4 | 110 ± 7.6 | 94.9 ± 19
8 | O=C(c1ccc(/C=C/c2n[nH]c3ccccc23)cc1)N1CCNCC1 [KW2449] | 88 ± 8 | 87.64 ± 0.15 | 81 ± 5.1 | 42.2 ± 5.9 | 103 ± 14 | 116 ± 35 | 78.79 ± 0.17 | 35.4 ± 8.4 | 69 ± 16 | 72.7 ± 10 | 104 ± 5.3 | 73.1 ± 49 | 109 ± 15 | 89.6 ± 4.7 | 113 ± 20 | 79.4 ± 13 | 75.6 ± 8.1 | 104 ± 3.9 | 48.8 ± 12 | 56 ± 10
9 | O=C(Cc1ccc(-c2ccc(OCCN3CCOCC3)cc2)cn1)NCc1ccccc1 [KX2391] | 139 ± 16 | 24.4 ± 0.93 | 24.1 ± 1.9 | 30.8 ± 3.4 | 108 ± 56 | 30.3 ± 9.2 | 18 ± 2.3 | 19.78 ± 0.15 | 91.5 ± 17 | 17.8 ± 2 | 8.71 ± 3 | 10.3 ± 2.5 | 127 ± 31 | 36.5 ± 7.8 | 33.3 ± 7 | 31.8 ± 10 | 132 ± 43 | 24.8 ± 2.5 | 24.6 ± 4.9 | 17.8 ± 8.4
10 | COc1cc(C(=O)N2CCC(N3CCN(C)CC3)CC2)ccc1Nc1ncc2c(n1)N(C)c1ccccc1C(=O)N2C [LRRK2IN1] | 100 ± 8.9 | 84.8 ± 7 | 67.3 ± 4 | 42.4 ± 1.1 | 123 ± 3.5 | 96.6 ± 1.3 | 44.2 ± 7.9 | 16 ± 2.8 | 111 ± 44 | 70.9 ± 6 | 71 ± 31 | 32.9 ± 13 | 116 ± 14 | 93.7 ± 7.9 | 93.8 ± 15 | 38.2 ± 4 | 106 ± 7 | 152 ± 59 | 69.4 ± 3 | 19.1 ± 5.2
11 | CS(=O)(=O)CCNCc1ccc(-c2ccc3ncnc(Nc4ccc(OCc5cccc(F)c5)c(Cl)c4)c3c2)o1 [Lapatinib] | 97.5 ± 7 | 87 ± 6.9 | 89.7 ± 7.5 | 60.2 ± 1.2 | 120 ± 15 | 90 ± 36 | 83.6 ± 3 | 38.2 ± 8.8 | 77.6 ± 11 | 73.9 ± 0.55 | 64.9 ± 19 | 16.3 ± 2.1 | 96.3 ± 16 | 84.7 ± 12 | 78.7 ± 9.5 | 77 ± 4.7 | 112 ± 32 | 63.6 ± 13 | 86.8 ± 17 | 33.4 ± 10
12 | COc1cc2nccc(Oc3ccc(NC(=O)NC4CC4)c(Cl)c3)c2cc1C(N)=O [Lenvatinib] | 95.3 ± 5.8 | 96.8 ± 4.3 | 101 ± 33 | 68.4 ± 10 | 94.7 ± 34 | 122 ± 7.1 | 114 ± 15 | 86.5 ± 25 | 111 ± 9.8 | 92.6 ± 8.6 | 85.9 ± 42 | 94.1 ± 35 | 94.9 ± 21 | 97.5 ± 14 | 128 ± 7.1 | 93.5 ± 36 | 84.1 ± 11 | 92.2 ± 22 | 108 ± 20 | 90.8 ± 15
